Source: paper PMC11603075 (Communications Biology, 2024)

How the values were obtained:
Assay type in all cases: biochemical
[1] = target: T1, KDM4E (Homo sapiens, UniProt B2RXH2); test: Specific hydroxylation activity of KDM4E; details: for extent of hydroxylation (in words): KDM4E, relative to H2a(1–20)
T1 construct: KDM4E1–337; made in house; host or cells: E. coli
T1 sequence (B2RXH2 1-337): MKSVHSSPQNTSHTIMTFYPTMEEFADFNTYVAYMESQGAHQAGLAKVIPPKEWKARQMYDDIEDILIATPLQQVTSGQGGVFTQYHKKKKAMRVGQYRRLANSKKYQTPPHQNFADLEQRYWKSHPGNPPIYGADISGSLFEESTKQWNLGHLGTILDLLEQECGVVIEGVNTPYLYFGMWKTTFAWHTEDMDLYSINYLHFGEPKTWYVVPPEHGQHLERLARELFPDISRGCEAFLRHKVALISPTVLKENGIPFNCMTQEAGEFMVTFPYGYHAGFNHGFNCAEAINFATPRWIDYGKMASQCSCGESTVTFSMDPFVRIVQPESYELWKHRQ
Protocol: (§1) Fig. 3 KDM4E-catalysed hydroxylation occurs at Arg-20 on histone H2a peptide. a LC–MS/MS analysis of H2a(1–20) after KDM4E treatment. Two potential hydroxylation sites, R17 and R20, were identified, with the latter more likely (Supplementary Fig. 9). b Peptide variant studies support Arg-20 hydroxylation; specific activities: H2a(1–20), 0.65 nmol min^−1 mg^−1 SD: 0.073; H2a(1–20) with a C-terminal carboxylic acid (indicated with an -OH), no activity; H2a(1–20)R20A, no activity; H2a(1–20)R20K*, no activity; H2a(1–20)R20Kme3*, 0.44 nmol min^−1 mg^−1 SD: 0.04; H2a(1–20)R3me2a*, 0.51 nmol min^−1 mg^−1 SD: 0.05; H2a(1–20)R3A, 0.37 nmol min^−1 mg^−1 SD: 0.002; H2a(1–21)*, 0.65 nmol min^−1 mg^−1 SD 0.02; H2a(1–25, 0.35 nmol min^−1 mg^−1 SD: 0.044; and H2a(10–29), 0.02 nmol min^−1 mg^−1 SD: 0.013. Measurements employed MALDI–TOF MS except when labelled with*, which employed LC–MS (Supplementary Fig. 10 for representative MS data). n = 3 independent assays. c KDM, RDM and hydroxylation (+16 Da) activities of KDM4E are sequence and context dependent. Histone peptides (H2a, H3, H4) and variants (wild type residue in red, replaced with either K, Kme3, R or Rme2a) were incubated with KDM4E and analysed on MALDI–TOF MS. KDM, RDM and hydroxylation (+16 Da) were detected in some but not all peptides (Supplementary Fig. 10 for representative MS data). (−) No mass changes observed. n = 3 independent assays. See Supplementary Table 6 for conditions. TEXT PRINTED IN THE PICTURE: (c) H2a: K/R replacement K: -; K/R replacement Kme3: KDM/ROH; K/R replacement R: ROH; K/R replacement Rme2a: KDM/ROH | (c) H3: K/R replacement K: -; K/R replacement Kme3: KDM; K/R replacement R: -; K/R replacement Rme2a: RDM | (c) H4: K/R replacement K: -; K/R replacement Kme3: -; K/R replacement R: -; K/R replacement Rme2a: RDM DOUBTS OF THE COPYIST ABOUT THIS PICTURE: Panel c: the table cells are qualitative activity classes (KDM, RDM, ROH, -) for peptide variants, not numbers; it is uncertain whether they count as results. / Panel b: the bar chart prints no values beside the bars, so nothing was taken from it.
(§2) MS-based screening assays with peptides and calf thymus histones were as reported; see Supplementary Table 6 for conditions. Time course assays were based on reported procedures. In brief, equal volumes of the enzyme and substrate solutions were combined to initiate the reaction; 10 µL of 2% (v/v) formic acid (HCOOH) in ddH2O or 100% methanol was added to 10 µL of the reaction mixture to quench reactions at different time points. Unless otherwise stated, time course assays were carried out in triplicate. In some cases, LC–MS was used instead of MALDI-TOF MS to avoid a MALDI matrix induced artefact with the hydroxylated product (Supplementary Fig. 16).
Data collected from time course assay(s) were used to plot the % conversion vs time (min) using GraphPad Prism5 version 5.04; the resultant slopes were used to fit a line with linear regression to the first-order region of the reaction. The resultant gradient was then converted from % product formation min^−1 to amount of peptide converted (demethylation and / or hydroxylation) in µM.
Supplementary Figure 17 Comparison of specific hydroxylation activities of KD M4E with H2a(1–20) when anal ysed by MALDI-TO F MS or LC–MS. Comparison of specific activities for KDM4E catalysed hydroxylation of H2a(1–20) when analysed with MALDI-TOF MS or LC–MS ([…] SD: 0.073 and 0.65 nmol·min−1·mg− 1 SD: 0.01 respectively). n = 3 (independent assays). See Supplementary Table 6 for assay […]
(also on this page, place not known: KDM4E H2a(1 –20) analysed MALDI -TOF LC –MS nmol·min −1·mg−1 nmol·min−1·mg−1 0.8specific activity (nmol·min-1·mg-1)) […]
[ E nz ym e] [Peptide] [2OG] [Ascorbate] [(NH4)2F e(S O4)2] [TCEP] Buffer pH7.5 Enzyme Cognate substrate (mM) (mM) (mM) (mM) (mM) (mM) [HE PE S]
Supplementary Table 6 Summary of MS assay conditions for substrate screening. These conditions […]

[2] = target: T1, KDM4E; test: KDM, RDM and hydroxylation (+16 Da) activities of KDM4E with histone peptide variants by MS; details: MALDI–TOF or LC–MS, n = 3
Protocol: as §1, with “(−) No mass changes observed. n = 3 independent assays. See Supplementary Table 6 for conditions. TEXT PRINTED IN THE PICTURE: (c) H2a: K/R replacement K: -; K/R replacement Kme3: KDM/ROH; K/R replacement R: ROH; K/R replacement Rme2a: KDM/ROH | (c) H3: K/R replacement K: -; K/R replacement Kme3: KDM; K/R replacement R: -; K/R replacement Rme2a: RDM | (c) H4: K/R replacement K: -; K/R replacement Kme3: -; K/R replacement R: -; K/R replacement Rme2a: RDM DOUBTS OF THE COPYIST ABOUT THIS PICTURE: Panel c: the table cells are qualitative activity classes (KDM, RDM, ROH, -) for peptide variants, not numbers; it is uncertain whether they count as results. / Panel b: the bar chart prints no values beside the bars, so nothing was taken from it.” left out

[3] = target: T1, KDM4E; test: MALDI–TOF MS demethylation/+16 Da assay, KDM4E; details: 60 min, 2 µM KDM4E, 10 µM peptide
From the text: Fig. 2 Histone H2a fragments are KDM5 and KDM4 substrates. […] See Supplementary Table 6 and Supplementary Fig. 2 for assay conditions and quantification, respectively. […] 0-minute MS spectrum in black, 60/90-minute spectrum in red.
as §2, with “16). […]” for “16).”
Supplementary Figure 2 Histone H2a peptide fragments are substrates of KDM4s and KDM5s.
2 for representative corresponding MALDI–TOF MS traces. Bar graphs comparing % product format ion (+16 Da and demethylation) of H2a(1–20)R3me2a by (a) K DM5 A–D (after 90 minutes) and (b) KDM4A–E ( a ft er 60 minutes), analysed by MALDI– TOF MS. n = (a) 2, (b) 3 (independent assays). See Supplementary Table 6 for assay condit ions. See Figure S13 A 1 for a positive control. […]

[4] = MALDI–TOF MS, mean of n = 3, SD: H2a(1–20) 0.073, R3A 0.002, H2a(1–25) 0.044, H2a(10–29) 0.013

Which results are given for “Ac - SGR GKQ GGKAR AKAKT R SSR - O H [H2a(1–20)-OH, H2a(1–20) with a C-terminal carboxylic acid]”?
specific activity (hydroxylation) ([1]; Figure 3b, LC–MS (*), replicate 1): 0 nmol/min/mg; specific activity (hydroxylation) ([1]; Figure 3b, LC–MS (*), replicate 2): 0 nmol/min/mg; specific activity (hydroxylation) ([1]; Figure 3b, LC–MS (*), replicate 3): 0 nmol/min/mg; extent of hydroxylation (in words) [1]: no activity was observed; specific activity (hydroxylation) [1, 4]: no activity; mass shift [2]: no mass shift

Which “specific activity (hydroxylation)” value ([1]; Figure 3b, MALDI–TOF MS, replicate 1) does the source give for “Ac - SGR GKQ GGKAR AKAKT R SSR AGL Q F [H2a(1–25)]” here?
The value was 0.3027 nmol/min/mg.

What about the “specific activity (hydroxylation)” value ([1]; Figure 3b, MALDI–TOF MS, replicate 2) of the same substance?
The value was 0.3905 nmol/min/mg.

And the “extent of hydroxylation (in words)” value [1]?
Its value is “lower”.

What about the “specific activity (hydroxylation)” value [1, 4] of the same substance?
Its value is 0.35 nmol/min/mg.

What about the “+16 Da mass shift (hydroxylation)” value [2] of the same substance?
The value was “+16 Da mass shift”.

With “H2a(1–20)R3me1: H2a(1–20) mono-methylated at Arg-3” as the substance, how does the “+16 Da mass shift” value [3] read?
Its value is “A +16 Da mass shift occurs”.
